Measured values as given in patent US9132136B2, “Pharmaceutical combination” (HOFFMANN-LA ROCHE INC., priority 2010, dated 2015).
Entries after “also recorded” stand apart in the source; their conditions may differ. Structures can show the parent of a compound that is named as a salt. Where two headings read alike, the source gives them in different places. One block for each compound: values may come before it.

Tests used:
[1] = paediatric patients, cited from earlier work
[2] = 14-day treatment in rats: body weight gain, fat mass (MR relaxometry), food intake
[3] = target: T1, mouse TAAR1 (Mus musculus, UniProt Q923Y8); assay: In vitro functional activity (cAMP assay) at mouse TAAR1 receptor in recombinant HEK293 cells; assay type: cell-based; conditions: for Emax: HEK293, relative to phenylethylamine having 100% agonistic activity, read-out: % efficacy
T1 construct: expressed in transfected cells
Procedure: In Vitro Functional Activity of TAAR1 Agonists at Mouse TAAR1 Receptor
Recombinant HEK293 cells expressing the mouse TAAR1 were grown at 37° C. and 5% CO2/95% air in 250 ml Falcon culture flasks in 30 ml culture medium. The cell culture medium contained DMEM high glucose, fetal calf serum (10%, heat inactivated for 30 min at 56° C.), geneticin G418 (500 μg/ml), and penicillin/streptomycin (1%). Cells were harvested when 80-90% confluent. Then culture medium was then removed from the culture flasks, cells washed once with 5 ml of PBS. After removing the wash solution, 5 ml of trypsin/EDTA solution were added for 5 min at 37° C. Afterwards, 45 ml of culture medium was added to the 5 ml detached cell solution and the total 50 ml transferred into a 50 ml Falcon tube (ref: 2070), the tube was centrifuged at 1300 rpm for 3 min at RT and the culture medium removed. The cell pellet was resuspended in fresh culture medium and brought to 5×10 E5 cells per milliliter. Then the cells were plated in 96-well Plate (BIOCOAT 6640 from Becton Dickinson) with a multipipette (100 μl/well, 50 000 cells/well) and incubated 20 h at 37° C.
The cell culture medium was removed and the cells washed once with PBS. 50 μl of PBS (AMIMED Endotoxine free: 8-05F00-1) with 1 mM IBMX were added and the cells allowed to incubate for 30 min at 37° C. and 5% CO2/95% air. Then 50 μl of a (e.g.) 20 μM compound solution or 50 μl of a 50% beta-PEA stimulation concentration in PBS (AMIMED Endotoxine free) with 1 mM IBMX were added and the cells incubated for 30 min at 37° C. as above again. After the incubation the cells were lysed with 50 μl of the 3× Detection Mix solution containing Ru-cAMP, Alexa700-cAMP Ab and lysis buffer for at least 60 min (better 2 h) at RT under strong shaking. The fluorescence is measured on the NanoScan (10M reader) (Ex. 456 nm, Em. 630 & 700 nm).
Efficacy values (% eff.) are relative to phenylethylamine having 100% agonistic activity.

[4] = tested on: cocaine-induced hyperlocomotor activity in mice; assay: Cocaine-induced locomotion test in mice; assay type: in vivo
[5] = Oral glucose tolerance test (oGTT) in male C57Bl6 mice; assay type: in vivo, male C57BL/6J mice
Procedure: An oral glucose tolerance test (oGTT) was performed in C57Bl6 mice to address potential anti-diabetic effects of TAAR1 agonists. Male C57BL/6J mice (Charles River Laboratories, Lyon, France) were stratified into groups of 8 mice according to body weight. The evening before the animals received 1 g food, this corresponds to a fasting period of about 10 hours. At the experiment day the animals were treated with TAAR1 agonists or placebo (0.3% Tween 80) 45 minutes prior to an oral glucose challenge of 2 g/kg. The main readout was blood glucose measured with Accu-Chek Aviva. In parallel blood samples were taken for insulin determination.

[6] = tested on: L-687414-induced hyperlocomotion in mice; assay: L-687414-induced locomotion test in mice; assay type: in vivo
[7] = 14 days, olanzapine 2 mg/kg p.o.
[8] = HEK293 cells expressing mouse TAAR1, cAMP assay, read-out: EC50
[9] = 0.1 and 0.3 mg/kg p.o., vs vehicle
[10] = 10 and 30 mg/kg p.o., vs vehicle
[11] = 0.3 and 1 mg/kg p.o., vs vehicle
[12] = 14 days, 1 mg/kg p.o., vs vehicle
[13] = 14 days, 3 and 10 mg/kg p.o., vs vehicle

T1 sequence (Q923Y8 whole entry): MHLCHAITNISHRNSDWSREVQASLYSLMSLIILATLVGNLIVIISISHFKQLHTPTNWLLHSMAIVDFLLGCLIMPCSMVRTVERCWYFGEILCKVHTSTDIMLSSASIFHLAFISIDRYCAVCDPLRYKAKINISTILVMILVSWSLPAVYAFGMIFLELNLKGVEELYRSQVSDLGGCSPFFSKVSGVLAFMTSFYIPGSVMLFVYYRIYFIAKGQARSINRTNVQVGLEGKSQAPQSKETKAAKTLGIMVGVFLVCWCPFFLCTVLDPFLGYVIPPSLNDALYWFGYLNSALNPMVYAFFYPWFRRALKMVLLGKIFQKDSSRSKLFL

SMILES: Cc1nc2n(c(=O)c1CCN1CCC(c3noc4cc(F)ccc34)CC1)CCCC2 [risperidone]
levels of triglycerides ([1]; study period): increased significantly

SMILES: Cc1cc2c(s1)Nc1ccccc1N=C2N1CCN(C)CC1 [olanzapine, reference compound]
incidence rates of hyperglycaemia and the metabolic syndrome [1]: highest incidence rates | food intake [2, 7]: increase | weight gain [2, 7]: increase | Cumulative food intake ± SEM ([2]; Study 2, olanzapine 2 mg/kg): 301.6 ± 8.6 g

SMILES: CC[C@@H](C[C@H]1COC(N)=N1)c1ccccc1 [Example S1, (S)-4-((S)-2-Phenyl-butyl)-4,5-dihydro-oxazol-2-ylamine]
Emax [3]: 90% | EC50 [3, 8]: 2 nM | cocaine-induced hyperlocomotor activity ([4]; tested alone, 0.1 mg/kg p.o.): partially antagonized | fasting glucose levels [5]: No effect | glucose AUC (0-60 min) during oGTT (blood glucose excursion) [5, 9]: significantly lowered; also recorded: markedly lowered | insulin AUC (0-60 min) during oGTT (insulin excursion) [5, 9]: significantly lower; also recorded: markedly lowered

SMILES: CC[C@@H](C[C@H]1COC(N)=N1)Oc1cccc(O)c1 [Example S5, 3-[(S)-1-((S)-2-Amino-4,5-dihydro-oxazol-4-ylmethyl)-propoxy]-phenol]
Emax [3]: 51% | EC50 [3, 8]: 1.6 nM | glucose AUC (0-60 min) during oGTT ([5]; 30 mg/kg p.o., vs vehicle): markedly lowered

SMILES: CCN(C[C@H]1COC(N)=N1)c1ccccc1 [Example S4, (S)-4-[(Ethyl-phenyl-amino)-methyl]-4,5-dihydro-oxazol-2-ylamine]
Emax [3]: 65% | EC50 [3, 8]: 3.3 nM | glucose AUC (0-60 min) during oGTT ([5]; 0.3 mg/kg p.o., vs vehicle): markedly lowered | insulin AUC (0-60 min) during oGTT ([5]; 0.3 mg/kg p.o., vs vehicle): markedly lowered

SMILES: OCCOCCN1CCN(C2=Nc3ccccc3Sc3ccccc32)CC1 [quetiapine]
incidence rates of hyperglycaemia and the metabolic syndrome [1]: modestly higher incidence rates | adverse metabolic baseline-to-endpoint changes (total cholesterol, triglycerides, non-HDL cholesterol, ratio of triglycerides to HDL cholesterol) ([1]; study period): reached statistical significance

SMILES: O=C1CCc2ccc(OCCCCN3CCN(c4cccc(Cl)c4Cl)CC3)cc2N1 [aripiprazole]
adverse metabolic baseline-to-endpoint changes (total cholesterol, triglycerides, non-HDL cholesterol, ratio of triglycerides to HDL cholesterol) ([1]; study period): not significant

SMILES: Cc1c(F)cccc1[C@H]1COC(N)=N1 [Example S2, (S)-4-(3-fluoro-2-methyl-phenyl)-4,5-dihydro-oxazol-2-ylamine]
Emax [3]: 65% | EC50 [3, 8]: 1.8 nM | cocaine-induced hyperlocomotor activity ([4]; 1 and 3 mg/kg p.o.): significantly antagonized | effects on baseline locomotor activity ([4]; doses that antagonized cocaine (1 and 3 mg/kg p.o.)): modest effects | cocaine-induced hyperlocomotor activity ([4]; tested alone, 0.3 mg/kg p.o., 0.3 mg/kg): partially active; also recorded: partially antagonized | L-687414-induced hyperlocomotion ([6]; acute, 0.00003-1 mg/kg p.o.): dose-dependently antagonized; also recorded: fully antagonized | L-687414-induced locomotor activity ([6]; alone, 0.001 mg/kg p.o.): partially active | glucose AUC (0-60 min) during oGTT [5, 11]: markedly lowered | insulin AUC (0-60 min) during oGTT [5, 11]: markedly lowered | fat mass [2, 12]: No significant effect | food intake [2, 12]: No significant effect | weight gain ([2]; 14 days, 1 mg/kg p.o., vs vehicle, 1 mg/kg): No significant effect and not | food intake ([2]; 14 days, 10 mg/kg): significant reduction | weight loss compared to pre-treatment values ([2]; 14 days, 3 and 10 mg/kg p.o.): without inducing weight loss | fat mass [2, 13]: reduced | food intake [2, 13]: reduced | weight gain [2, 13]: reduced | Cumulative food intake ± SEM ([2]; Study 1, 3 mg/kg): 233.8 ± 7.4 g | Cumulative food intake ± SEM ([2]; Study 1, 10 mg/kg): 217.0 ± 7.3 g | Cumulative food intake ± SEM ([2]; Study 2, 1 mg/kg): 248.8 ± 5.0 g

SMILES: Cc1cc(C(=O)Nc2ccc([C@@H]3CNCCO3)cc2)cc(Cl)n1 [Example S12, (R)-2-Chloro-6-methyl-N-(4-(morpholin-2-yl)phenyl)isonicotinamide hydrochloride]
Emax [3]: 69% | EC50 [3, 8]: 3.1 nM | glucose AUC (0-60 min) during oGTT ([5]; 3 mg/kg p.o., vs vehicle): markedly lowered

SMILES: O=C(Nc1ccc([C@H]2CNCCO2)cc1)c1ccc(OCC(F)(F)F)nc1 [Example S13, (S)—N-(4-(Morpholin-2-yl)phenyl)-6-(2,2,2-trifluoroethoxy)nicotinamide hydrochloride]
Emax [3]: 54% | EC50 [3, 8]: 1.6 nM | glucose AUC (0-60 min) during oGTT ([5]; 3 mg/kg p.o., vs vehicle): markedly lowered

SMILES: NC1=N[C@@H](c2ccc(Cl)cc2C(F)(F)F)CO1 [Example S3, (+)-(S)-4-(4-Chloro-2-trifluoromethyl-phenyl)-4,5-dihydro-oxazol-2-ylamine]
EC50 [3]: 1.3 nM | Emax [3]: 67% | glucose AUC (0-60 min) during oGTT ([5]; 1 and 3 mg/kg p.o., vs vehicle): markedly lowered | insulin AUC (0-60 min) during oGTT ([5]; 1 and 3 mg/kg p.o., vs vehicle): markedly lowered

Second part, led by results:

Emax [3]: 57% | EC50 [3, 8]: 0.8 nM
SMILES: O=C(Nc1ccc(C2CCNC2)cc1)Nc1ccc(Cl)cn1 (racemic) [Example S7, (RS)-1-(5-Chloro-pyridin-2-yl)-3-(4-pyrrolidin-3-yl-phenyl)-urea hydrochloride]
glucose AUC (0-60 min) during oGTT ([5]; 10 mg/kg p.o., vs vehicle): markedly lowered

Emax [3]: 65% | EC50 [3, 8]: 7.4 nM
SMILES: O=C(Nc1ccc(C2CCNC2)cc1)c1ccc(Cl)cn1 (racemic) [Example S8, (RS)-5-Chloro-pyridine-2-carboxylic acid (4-pyrrolidin-3-yl-phenyl)-amide hydrochloride]
glucose AUC (0-60 min) during oGTT [5, 10]: markedly lowered

Emax [3]: 39% | EC50 [3, 8]: 1.8 nM
SMILES: O=C(Nc1ccc([C@H]2CNCCO2)cc1)c1ccc(Cl)nc1 [Example S17, (S)-6-Chloro-N-(4-(morpholin-2-yl)phenyl)nicotinamide hydrochloride]
glucose AUC (0-60 min) during oGTT [5, 11]: markedly lowered

Emax [3]: 60% | EC50 [3, 8]: 0.4 nM
SMILES: N#Cc1cccc(NC(=O)Nc2ccc([C@H]3CNCCO3)cc2)c1 [Example S16, (S)-1-(3-Cyanophenyl)-3-(4-(morpholin-2-yl)phenyl)urea hydrochloride]
glucose AUC (0-60 min) during oGTT ([5]; 1 mg/kg p.o., vs vehicle): markedly lowered

Emax [3]: 40% | EC50 [3, 8]: 0.6 nM
SMILES: O=C(NCc1ccc(F)cc1)Nc1ccc([C@H]2CNCCO2)cc1 [Example S15, (S)-1-(4-Fluorobenzyl)-3-(4-(morpholin-2-yl)phenyl)urea hydrochloride]
glucose AUC (0-60 min) during oGTT ([5]; 1 mg/kg p.o., vs vehicle): markedly lowered

Emax [3]: 55% | EC50 [3, 8]: 4.6 nM
SMILES: O=C(Nc1ccc([C@H]2CNCCO2)cc1)c1ccnc(C(F)(F)F)c1 [Example S14, (S)—N-(4-(Morpholin-2-yl)phenyl)-2-(trifluoromethyl)isonicotinamide hydrochloride]
glucose AUC (0-60 min) during oGTT ([5]; 1 mg/kg p.o., vs vehicle): markedly lowered

Emax [3]: 78% | EC50 [3, 8]: 1.4 nM
SMILES: O=C(Nc1ccc(C2CCNC2)cc1)c1ccc(Cl)cc1 (racemic) [Example S6, (RS)-4-Chloro-N-(4-pyrrolidin-3-yl-phenyl)-benzamide hydrochloride]
glucose AUC (0-60 min) during oGTT [5, 10]: markedly lowered

Emax [3]: 45% | EC50 [3, 8]: 0.1 nM
SMILES: NC1=N[C@@H](CCc2ccc(NC(=O)c3ccc(Cl)cc3)cc2)CO1 [Example S11, N-{4-[2-((S)-2-Amino-4,5-dihydro-oxazol-4-yl)-ethyl]-phenyl}-4-chloro-benzamide]
glucose AUC (0-60 min) during oGTT ([5]; 1 and 3 mg/kg p.o., vs vehicle): markedly lowered

Emax [3]: 32% | EC50 [3, 8]: 1.6 nM
SMILES: NC1=N[C@@H](CCc2ccc(NC(=O)c3ncc(Cl)cn3)cc2)CO1 [Example S10, 5-Chloro-pyrimidine-2-carboxylic acid {4-[2-((S)-2-amino-4,5-dihydro-oxazol-4-yl)-ethyl]-phenyl}-amide]
glucose AUC (0-60 min) during oGTT ([5]; 10 mg/kg p.o., vs vehicle): markedly lowered

Emax [3]: 99% | EC50 [3, 8]: 1.7 nM
SMILES: C[C@H](OC[C@H]1COC(N)=N1)c1ccc(F)cc1 [Example S9, (S)-4-[(S)-1-(4-Fluoro-phenyl)-ethoxymethyl]-4,5-dihydro-oxazol-2-ylamine]
glucose AUC (0-60 min) during oGTT ([5]; 10 mg/kg p.o., vs vehicle): markedly lowered
